Results reported in patent publication US11266692B2, “Intracellular genomic transplant and methods of therapy” (Regents of the University of Minnesota, priority 2015, dated 2022).

How the values were obtained:
Experiment in all cases: Validation of gRNAs: Cas9/gRNA plasmids in HEK293T, Surveyor digest, gel densitometry
Format in all cases: cell-based, human
[1] = test system: CCR5; conditions: CCR5 gene site, 3 days
Protocol: (§1) HEK293T cells were plated out at a density of 1×10^5 cells per well in a 24 well plate. 150 uL of Opti-MEM medium was combined with 1.5 ug of gRNA plasmid, 1.5 ug of Cas9 plasmid. Another 150 uL of Opti-MEM medium was combined with 5 ul of Lipofectamine 2000 Transfection reagent (Invitrogen). The solutions were combined together and incubated for 15 minutes at room temperature. The DNA-lipid complex was added dropwise to wells of the 24 well plate. Cells were incubated for 3 days at 37° C. and genomic DNA was collected using the GeneJET Genomic DNA Purification Kit (Thermo Scientific). Activity of the gRNAs was quantified by a Surveyor Digest, gel electrophoresis, and densitometry (FIG. 60 and FIG. 61) (Guschin, D. Y., et al., “A Rapid and General Assay for Monitoring Endogenous Gene Modification,” Methods in Molecular Biology, 649: 247-256 (2010)).
(§2) The efficiencies of Cas9 in creating double strand break (DSB) with the assistance of different gRNA sequences were listed in Table 7. The percentage numbers in Table 7 indicated the percent of gene modifications in the sample.

[2] = test system: CTLA4; conditions: CTLA4 gene site, 3 days
Protocol: as §1, §2

[3] = test system: HPRT; conditions: HPRT gene site, 3 days
Protocol: as §1, §2

[4] = test system: PD1; conditions: PD1 gene site, 3 days
Protocol: as §1
(§3) The percentage numbers in Table 7 indicated the percent of gene modifications in the sample.

[5] = test system: AAVS1; conditions: AAVS1 gene site, 3 days
Protocol: as §1, §3

Substance: CCR5 gRNA#6: guide RNA to CCR5; sense primer SEQ ID 71 CACCGTTGTATTTCCAAAGTCCCAC
- efficiency of Cas9/gRNA pair in creating double strand break (DSB), percent of gene modifications [1]: 33.17%

Substance: CTLA4 gRNA#1: guide RNA to CTLA4; sense primer SEQ ID 47 CACCGCCGGGTGACAGTGCTTCGGC
- efficiency of Cas9/gRNA pair in creating double strand break (DSB), percent of gene modifications [2]: 40.96%

Substance: HPRT gRNA#1: guide RNA to HPRT; sense primer SEQ ID 5 CACCGCACGTGTGAACCAACCCGCC
- efficiency of Cas9/gRNA pair in creating double strand break (DSB), percent of gene modifications [3]: 27.85% ^

Substance: PD1 gRNA#2: guide RNA to PD-1; sense primer SEQ ID 35 CACCGCCTGCTCGTGGTGACCGAAG
- efficiency of Cas9/gRNA pair in creating double strand break (DSB), percent of gene modifications [4]: >60%

Substance: HPRT gRNA#6: guide RNA to HPRT; sense primer SEQ ID 15 CACCGGTCTCGAACTCCTGAGCTC
- efficiency of Cas9/gRNA pair in creating double strand break (DSB), percent of gene modifications [3]: <5%

Substance: CTLA4 gRNA#6: guide RNA to CTLA4; sense primer SEQ ID 57 CACCGCTGGCGATGCCTCGGCTGC
- efficiency of Cas9/gRNA pair in creating double strand break (DSB), percent of gene modifications [2]: 36.93%

Substance: PD1 gRNA#4: guide RNA to PD-1; sense primer SEQ ID 39 CACCGAGGCGGCCAGCTTGTCCGTC
- efficiency of Cas9/gRNA pair in creating double strand break (DSB), percent of gene modifications [4]: 20.87%

Substance: CCR5 gRNA#1: guide RNA to CCR5; sense primer SEQ ID 61 CACCGACAATGTGTCAACTCTTGAC
- efficiency of Cas9/gRNA pair in creating double strand break (DSB), percent of gene modifications [1]: 21.47%

Substance: PD1 gRNA#5: guide RNA to PD-1; sense primer SEQ ID 41 CACCGCGTTGGGCAGTTGTGTGACA
- efficiency of Cas9/gRNA pair in creating double strand break (DSB), percent of gene modifications [4]: 30.60%

Substance: HPRT gRNA#5: guide RNA to HPRT; sense primer SEQ ID 13 CACCGTGTTTCAATGAGAGCATTAC
- efficiency of Cas9/gRNA pair in creating double strand break (DSB), percent of gene modifications [3]: <1%

Substance: AAVS1 gRNA#1: guide RNA to AAVS1; sense primer SEQ ID 19 CACCGTGGGGGTTAGACCCAATATC
- efficiency of Cas9/gRNA pair in creating double strand break (DSB), percent of gene modifications [5]: 32.99%

Substance: HPRT gRNA#4: guide RNA to HPRT; sense primer SEQ ID 11 CACCGTAAATTTCTCTGATAGACTA
- efficiency of Cas9/gRNA pair in creating double strand break (DSB), percent of gene modifications [3]: <5%

Substance: PD1 gRNA#1: guide RNA to PD-1; sense primer SEQ ID 33 CACCGCGGAGAGCTTCGTGCTAAAC
- efficiency of Cas9/gRNA pair in creating double strand break (DSB), percent of gene modifications [4]: 10.83%

Substance: AAVS1 gRNA#6: guide RNA to AAVS1; sense primer SEQ ID 29 CACCGCGGGCCCCTATGTCCACTTC
- efficiency of Cas9/gRNA pair in creating double strand break (DSB), percent of gene modifications [5]: 39.62%

Substance: CCR5 gRNA#2: guide RNA to CCR5; sense primer SEQ ID 63 CACCGTCATCCTCCTGACAATCGAT
- efficiency of Cas9/gRNA pair in creating double strand break (DSB), percent of gene modifications [1]: >60%

Substance: CCR5 gRNA#5: guide RNA to CCR5; sense primer SEQ ID 69 CACCGATCTGGTAAAGATGATTCC
- efficiency of Cas9/gRNA pair in creating double strand break (DSB), percent of gene modifications [1]: 36.07%

Substance: CCR5 gRNA#3: guide RNA to CCR5; sense primer SEQ ID 65 CACCGGTGACAAGTGTGATCACTT
- efficiency of Cas9/gRNA pair in creating double strand break (DSB), percent of gene modifications [1]: 55.98%

Substance: PD1 gRNA#6: guide RNA to PD-1; sense primer SEQ ID 43 CACCGACGGAAGCGGCAGTCCTGGC
- efficiency of Cas9/gRNA pair in creating double strand break (DSB), percent of gene modifications [4]: 25.91%

Substance: AAVS1 gRNA#2: guide RNA to AAVS1; sense primer SEQ ID 21 CACCGACCCCACAGTGGGGCCACTA
- efficiency of Cas9/gRNA pair in creating double strand break (DSB), percent of gene modifications [5]: 27.10%

Substance: CTLA4 gRNA#3: guide RNA to CTLA4; sense primer SEQ ID 51 CACCGCTAGATGATTCCATCTGCAC
- efficiency of Cas9/gRNA pair in creating double strand break (DSB), percent of gene modifications [2]: 39.33%

Substance: AAVS1 gRNA#5: guide RNA to AAVS1; sense primer SEQ ID 27 CACCGCCGGCCCTGGGAATATAAGG
- efficiency of Cas9/gRNA pair in creating double strand break (DSB), percent of gene modifications [5]: 27.55%

Substance: HPRT gRNA#2: guide RNA to HPRT; sense primer SEQ ID 7 CACCGAAACAACAGGCCGGGCGGGT
- efficiency of Cas9/gRNA pair in creating double strand break (DSB), percent of gene modifications [3]: 30.04% ^

Substance: HPRT gRNA#3: guide RNA to HPRT; sense primer SEQ ID 9 CACCGACAAAAAAATTAGCCGGGTG
- efficiency of Cas9/gRNA pair in creating double strand break (DSB), percent of gene modifications [3]: <1%

Substance: CTLA4 gRNA#4: guide RNA to CTLA4; sense primer SEQ ID 53 CACCGAGGTTCACTTGATTTCCAC
- efficiency of Cas9/gRNA pair in creating double strand break (DSB), percent of gene modifications [2]: 40.13%

Substance: CTLA4 gRNA#2: guide RNA to CTLA4; sense primer SEQ ID 49 CACCGTGCGGCAACCTACATGATG
- efficiency of Cas9/gRNA pair in creating double strand break (DSB), percent of gene modifications [2]: 56.10%

Substance: CTLA4 gRNA#5: guide RNA to CTLA4; sense primer SEQ ID 55 CACCGCCGCACAGACTTCAGTCACC
- efficiency of Cas9/gRNA pair in creating double strand break (DSB), percent of gene modifications [2]: 15.90%

Substance: CCR5 gRNA#4: guide RNA to CCR5; sense primer SEQ ID 67 CACCGACACAGCATGGACGACAGCC
- efficiency of Cas9/gRNA pair in creating double strand break (DSB), percent of gene modifications [1]: 45.99%
